55 molecules from patent US8735387B2, “Oxazolopyrimidines as Edg-1 receptor agonists” (Sanofi, priority 2008, dated 2014) can be followed below.

T1 sequence (P21453 whole entry): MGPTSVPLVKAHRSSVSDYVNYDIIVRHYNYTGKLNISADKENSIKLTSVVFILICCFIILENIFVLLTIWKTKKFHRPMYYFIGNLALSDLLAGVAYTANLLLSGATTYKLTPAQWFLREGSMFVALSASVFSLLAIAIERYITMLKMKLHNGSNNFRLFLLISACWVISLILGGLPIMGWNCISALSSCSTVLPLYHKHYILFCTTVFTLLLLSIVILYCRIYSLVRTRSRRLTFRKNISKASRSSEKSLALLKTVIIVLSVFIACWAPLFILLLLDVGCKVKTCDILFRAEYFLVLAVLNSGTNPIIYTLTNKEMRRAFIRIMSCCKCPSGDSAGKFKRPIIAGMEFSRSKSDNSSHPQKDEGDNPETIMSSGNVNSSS

The first assay addresses T1, human Edg-1 receptor (Homo sapiens, UniProt P21453).
T1 construct: expressed in transfected cells; membrane preparation
Put plainly: GTP-γ-S assay using human Edg-1 receptors (scintillation proximity assay, membrane preparation from CHO Flp-In cell line). The following applies: example compound at 10 μM; relative to 10 μM S1P; GTP-γ-S SPA, human Edg-1 membranes. Type of assay: biochemical. In a few lines: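 Scintillation proximity GTP-γ-S binding assay measuring receptor activation. Membranes prepared from a CHO Flp-In line stably overexpressing N-terminally FLAG-tagged human Edg-1.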
(In a scintillation proximity assay essentially only radioactivity close to the scintillant gives light.)
Regarding `CCOc1nc(Cc2ccc(Cl)cc2)nc2oc(-c3cc(C)c(OCC(O)CNCc4ccccc4)c(C)c3)nc12` (stereo not shown) [Example 257], the “% Activation (Edg-1 receptor activation in percent of the activation by 10 μM S1P)” value amounted to 122%.
For `CCCOc1nc(Cc2ccc(Cl)cc2)nc2oc(-c3cc(N)ccc3F)nc12` [Example 135], the “% Activation (Edg-1 receptor activation in percent of the activation by 10 μM S1P)” value amounted to 117%.
On the same count and under the same terms, the result for `CCOc1nc(Cc2ccc(Cl)cc2)nc2oc(-c3cc(C)c(OCC(O)CNCCCNS(C)(=O)=O)c(C)c3)nc12` (stereo not shown) [Example 280] reads 53%; that for `CCCOc1nc(Cc2ccc(Cl)cc2)nc2oc(-c3cc(C)c(OCC(=O)N4CC[C@@H](O)C4)c(C)c3)nc12` [Example 232], 125%.
Still for that read-out and setting: the result for `CCOc1nc(Cc2ccc(Cl)cc2)nc2oc(-c3cc(C)c(OCC(=O)N4CCC[C@H]4C(=O)O)c(C)c3)nc12` [Example 311] reads 78%.
For `CCCOc1nc(CN2CCC(F)(F)CC2)nc2oc(-c3c(F)ccc(F)c3F)nc12` [Example 83], the “% Activation (Edg-1 receptor activation in percent of the activation by 10 μM S1P)” value is 111%.
Same read-out and setting: the result for `CCOc1nc(CC2CCCCC2)nc2oc(-c3cccc(C)c3)nc12` [Example 309] reads 104%; that for `CCCOc1nc(CN2CCCOCC2)nc2oc(-c3ccco3)nc12` [Example 97], 100%.
Same read-out and setting: the result for `CCCOc1nc(CN2C(=O)CN(C)C2=O)nc2oc(-c3cccc(F)c3)nc12` [Example 53] reads 69%.
The same measure, in the same setting: the value for `CCOc1nc(Cc2ccc(Cl)cc2)nc2oc(-c3cccc(C)c3)nc12` [Example 117] was 101%.
For the molecule `CCOc1nc(Cc2ccc(Cl)cc2)nc2oc(-c3cc(C)c(OCC(=O)N4CC(C(=O)O)C4)c(C)c3)nc12` [Example 228], the “% Activation (Edg-1 receptor activation in percent of the activation by 10 μM S1P)” value is 107%.
Still for that read-out and setting: the value for `CCCOc1nc(CN2CCCOCC2)nc2oc(-c3ccc(OC)c(F)c3)nc12` [Example 92] was 106%; that for `CCOc1nc(CC2CCC2)nc2oc(-c3cc(F)ccc3Cl)nc12` [Example 164] was 98%.
Turning to `CCCOc1nc(CN2CCOCC2)nc2oc(-c3cc(F)cc(F)c3)nc12` [Example 24], the “% Activation (Edg-1 receptor activation in percent of the activation by 10 μM S1P)” value worked out at 115%.
Still for that read-out and setting: the result for `CCCOc1nc(CN2CC(C)OC(C)C2)nc2oc(-c3cccc(F)c3)nc12` (stereo not shown) [Example 47] reads 85%.
Regarding `CCCOc1nc(CN2CC[C@@H](F)C2)nc2oc(-c3cccc(F)c3)nc12` [Example 303], the “% Activation (Edg-1 receptor activation in percent of the activation by 10 μM S1P)” value came out at 104%.
Still for that read-out and setting: the result for `CCCOc1nc(CN2CCC(F)(F)CC2)nc2oc(-c3ccc(OC)c(F)c3)nc12` [Example 93] reads 103%; that for `CCOc1nc(Cc2ccc(Cl)cc2)nc2oc(-c3cccc(OCC(=O)NCCN4CCOCC4)c3)nc12` [Example 266], 52%; that for `CCCOc1nc(CN2CCCC(O)C2)nc2oc(-c3cccc(F)c3)nc12` (stereo not shown) [Example 179], 87%.
`Clc1ccc(Cc2nc(OC3CCCC3)c3nc(-c4ccco4)oc3n2)cc1` [Example 110]: the “% Activation (Edg-1 receptor activation in percent of the activation by 10 μM S1P)” value is given as 61%.
For `CCOc1nc(Cc2ccc(Cl)cc2)nc2oc(-c3cc(C)c(OCC(O)CSc4nnc(C5CC5)[nH]4)c(C)c3)nc12` (stereo not shown) [Example 281], the “% Activation (Edg-1 receptor activation in percent of the activation by 10 μM S1P)” value worked out at 79%.
Same read-out and setting: the value for `CCCOc1nc(Cc2ccc(Cl)cc2)nc2oc(-c3cccc(Cl)c3)nc12` [Example 130] was 78%; that for `Cc1cccc(-c2nc3c(OC4COC4)nc(CN4CCOCC4)nc3o2)c1` [Example 187] was 116%.
Turning to `Cc1cccc(-c2nc3c(OCCCF)nc(Cc4ccc(Cl)cc4)nc3o2)c1` [Example 120], the “% Activation (Edg-1 receptor activation in percent of the activation by 10 μM S1P)” value amounted to 107%.
For `CCCOc1nc(Cn2ccnc2)nc2oc(-c3cccc(F)c3)nc12` [Example 61], the “% Activation (Edg-1 receptor activation in percent of the activation by 10 μM S1P)” value was determined as 76%.
Regarding `CCCOc1nc(Cc2ccc(Cl)cc2)nc2oc(-c3cc(C)c(OCCc4c(C)noc4C)c(C)c3)nc12` [Example 235], the “% Activation (Edg-1 receptor activation in percent of the activation by 10 μM S1P)” value amounted to 59%.
As for `CCCOc1nc(Cc2ccc(Cl)cc2)nc2oc(-c3cccs3)nc12` [Example 103], the “% Activation (Edg-1 receptor activation in percent of the activation by 10 μM S1P)” value is reported as 85%.
`CCCOc1nc(Cc2ccc(Cl)cc2)nc2oc(-c3ccc(Cl)c(C)c3)nc12` [Example 169]: the “% Activation (Edg-1 receptor activation in percent of the activation by 10 μM S1P)” value is on record as 87%.
Still for that read-out and setting: the result for `CCCOc1nc(CN2CCCOCC2)nc2oc(-c3cccc(Cl)c3)nc12` [Example 29] reads 118%; that for `CCCOc1nc(CN2CC[C@H](F)C2)nc2oc(-c3cccc(F)c3)nc12` [Example 202], 109%; that for `CCOc1nc(Cc2ccc(Cl)cc2)nc2oc(-c3cc(C)c(OCC(O)CN(C(C)C)C(C)C)c(C)c3)nc12` (stereo not shown) [Example 259], 66%.
For `CCCOc1nc(CN2CCCOCC2)nc2oc(-c3cc(F)c(F)cc3Cl)nc12` [Example 85], the “% Activation (Edg-1 receptor activation in percent of the activation by 10 μM S1P)” value is given as 104%.
Same read-out and setting: the result for `CCCOc1nc(Cc2ccc(Cl)cc2)nc2oc(-c3cc(C)c(OCC(=O)NCC(=O)OC(C)(C)C)c(C)c3)nc12` [Example 256] reads 69%; that for `CCCOc1nc(CN2CCC(OC)CC2)nc2oc(-c3cccc(F)c3)nc12` [Example 145], 67%; that for `CCCOc1nc(Cn2cncn2)nc2oc(-c3cccc(F)c3)nc12` [Example 204], 79%.
The same measure, in the same setting: the value for `C=C(C)COc1nc(Cc2ccc(Cl)cc2)nc2oc(-c3cccc(C)c3)nc12` [Example 119] was 80%; that for `CCCOc1nc(Cc2ccc(Cl)cc2)nc2oc(-c3cc(C)c(OCC(=O)CC)c(C)c3)nc12` [Example 316] was 70%; that for `CCCOc1nc(Cc2ccc(Cl)cc2)nc2oc(-c3cccc(C)c3)nc12` [Example 101] was 91%.
The same measure, in the same setting: the result for `CCCOc1nc(Cc2ccc(Cl)cc2)nc2oc(-c3cc(C)c(OCC(=O)NCCC(=O)O)c(C)c3)nc12` [Example 241] reads 128%; that for `CCCOc1nc(Cc2ccc(Cl)cc2)nc2oc(-c3cc(C)c(OCCCC(=O)O)c(C)c3)nc12` [Example 251], 112%; that for `CCCOc1nc(Cc2ccc(Cl)cc2)nc2oc(-c3cc(C)c(OCCCNCCO)c(C)c3)nc12` [Example 225], 100%.
Regarding `CCOc1nc(Cc2ccc(Cl)cc2)nc2oc(-c3cc(C)c(OCC(O)CSc4nnc(C(C)(C)C)[nH]4)c(C)c3)nc12` (stereo not shown) [Example 282], the “% Activation (Edg-1 receptor activation in percent of the activation by 10 μM S1P)” value is on record as 108%.
As for `CCCOc1nc(Cc2ccc(Cl)cc2)nc2oc(-c3cc(C)c(OCCCNCc4nnn[nH]4)c(C)c3)nc12` [Example 227], the “% Activation (Edg-1 receptor activation in percent of the activation by 10 μM S1P)” value amounted to 142%.
For the molecule `CCCOc1nc(Cc2ccc(Cl)cc2)nc2oc(-c3cc(C)c(OCC(O)CN4CCOCC4)c(C)c3)nc12` (stereo not shown) [Example 193], the “% Activation (Edg-1 receptor activation in percent of the activation by 10 μM S1P)” value came out at 114%.
Same read-out and setting: the value for `C=CCOc1nc(Cc2ccc(Cl)cc2)nc2oc(-c3cccnc3)nc12` [Example 127] was 73%; that for `CCCOc1nc(CN2CCC(F)(F)CC2)nc2oc(-c3cc(F)ccc3Cl)nc12` [Example 22] was 95%; that for `CCCOc1nc(CN2CCC(F)(F)CC2)nc2oc(-c3cccc(F)c3)nc12` [Example 33] was 93%.
On the same count and under the same terms, the value for `CCCCOc1nc(Cc2ccc(Cl)cc2)nc2oc(-c3ccco3)nc12` [Example 111] was 57%.
Take `CCOc1nc(Cc2ccc(Cl)cc2)nc2oc(-c3cc(C)c(OCC(=O)O)c(C)c3)nc12` [Example 253]: the “% Activation (Edg-1 receptor activation in percent of the activation by 10 μM S1P)” value was 79%.
On the same count and under the same terms, the value for `CCCOc1nc(CN2CCOCC2)nc2oc(-c3ccccc3)nc12` [Example 41] was 116%.
Still for that read-out and setting: the result for `CCOc1nc(Cc2ccc(Cl)cc2)nc2oc(-c3cccnc3)nc12` [Example 128] reads 110%.
Same read-out and setting: the result for `CCCOc1nc(CN2CCOCC2)nc2oc(-c3cccc(Cl)c3)nc12` [Example 27] reads 124%.

Staying with this assay, now noted: example compound at 10 μM; relative to 10 μM S1P; GTP-γ-S SPA, human Edg-1 membranes; read-out: % Activation (Edg-1 receptor activation in percent of the activation by 10 μM S1P).
Turning to `CCOc1nc(Cc2ccc(Cl)cc2)nc2oc(-c3cc(C)c(OCC(=O)NCC(=O)O)c(C)c3)nc12` [Example 240, (2-{4-[5-(4-chloro-benzyl)-7-ethoxy-oxazolo[5,4-d]pyrimidin-2-yl]-2,6-dimethyl-phenoxy}-acetylamino)-acetic acid], the activation at 10 µM stood at 123%.
On the same count and under the same terms, the value for `CCCOc1nc(Cc2ccc(Cl)cc2)nc2oc(-c3cc(C)c(O)c(C)c3)nc12` [Example 17, 4-[5-(4-Chloro-benzyl)-7-propoxy-oxazolo[5,4-d]pyrimidin-2-yl]-2,6-dimethyl-phenol] was 74%; that for `CCCOc1nc(Cc2ccc(C(F)(F)F)cc2)nc2oc(-c3cccc(F)c3)nc12` [Example 12, 2-(3-Fluoro-phenyl)-7-propoxy-5-(4-trifluoromethyl-benzyl)-oxazolo[5,4-d]pyrimidine] was 65%.
